Literature values in US4386074A, “LRF Antagonists” (The Salk Institute for Biological Studies, priority 1981, dated 1983).
[ ]: non-standard residue; d: D form. pGlu = O=C1CC[C@@H](C(=O)O)N1

Test system: release of LH and other gonadotropins by the pituitary gland
Details: D-Ala6 versus Gly6 des-His2 peptide

## [pGlu]WSY[dA]LRPG-NH2
  potency as inhibitor of the release of gonadotropins relative to the same peptide with Gly in the 6-position: 4 times
